# pIC50: −log10 of the molar value.
# System: 945468-187-T-J2-PDC spheroids viability
# Assay: Anticancer human tumor 945468-187-T-J2-PDC patient-derived rectal carcinoma cell line growth inhibition [PI3K]
# Conditions: spheroids with HUVEC and MSC; for pIC50: curve of first compound; for viability, T/C: stronger effect = lower value
# In short: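 Tumor cells grown as multi-cell spheroids with HUVEC endothelial cells and MSC fibroblast-like stroma were treated with targeted agents combined with inavolisib, alpelisib, duvelisib or copanlisib. Doses fell in half-log steps from near clinical Cmax, else from 10 microM. Viability was measured.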
# [1] = second compound 0.0316 µM, first compound 0.0316 µM
# [2] = second compound 0.0316 µM, first compound 0.1 µM
# [3] = second compound 0.1 µM, first compound 0.0316 µM
# [4] = second compound 0.1 µM, first compound 0.1 µM
# [5] = second compound 0.316 µM, first compound 0.0316 µM
# [6] = second compound 0.316 µM, first compound 0.1 µM
# [7] = second compound 1 µM, first compound 0.0316 µM
# [8] = second compound 1 µM, first compound 0.1 µM
# [9] = second compound 3.16 µM, first compound 0.0316 µM
# [10] = second compound 3.16 µM, first compound 0.1 µM
# [11] = second compound 10 µM, first compound 0.0316 µM
# [12] = second compound 10 µM, first compound 0.1 µM
# 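Also: spheroids exposed to compounds for seven days before reading.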
smiles,measurement,setting,value
CC(C)NCC(C(=O)N1CCN(c2ncnc3c2C(C)CC3O)CC1)c1ccc(Cl)cc1 (centres undefined) + Cc1nc(NC(=O)N2CCCC2C(N)=O)sc1-c1ccnc(C(C)(C)C(F)(F)F)c1,pIC50,second compound 0.0316 µM,< 5.00
same,pIC50,second compound 0.1 µM,< 5.00
same,pIC50,second compound 0.316 µM,< 5.00
same,pIC50,second compound 1 µM,< 5.00
same,pIC50,second compound 3.16 µM,< 5.00
same,pIC50,second compound 10 µM,< 5.00
same,"viability, T/C",[1],110%
same,"viability, T/C",[2],138%
same,"viability, T/C","second compound 0.0316 µM, first compound 0.316 µM",140%
same,"viability, T/C","second compound 0.0316 µM, first compound 1 µM",110%
same,"viability, T/C","second compound 0.0316 µM, first compound 3.16 µM",108%
same,"viability, T/C","second compound 0.0316 µM, first compound 10 µM",96.8%
same,"viability, T/C",[3],111%
same,"viability, T/C",[4],109%
same,"viability, T/C","second compound 0.1 µM, first compound 0.316 µM",125%
same,"viability, T/C","second compound 0.1 µM, first compound 1 µM",103%
same,"viability, T/C","second compound 0.1 µM, first compound 3.16 µM",106%
same,"viability, T/C","second compound 0.1 µM, first compound 10 µM",115%
same,"viability, T/C",[5],99%
same,"viability, T/C",[6],117%
same,"viability, T/C","second compound 0.316 µM, first compound 0.316 µM",99.7%
same,"viability, T/C","second compound 0.316 µM, first compound 1 µM",87.8%
same,"viability, T/C","second compound 0.316 µM, first compound 3.16 µM",119%
same,"viability, T/C","second compound 0.316 µM, first compound 10 µM",98.4%
same,"viability, T/C",[7],106%
same,"viability, T/C",[8],119%
same,"viability, T/C","second compound 1 µM, first compound 0.316 µM",109%
same,"viability, T/C","second compound 1 µM, first compound 1 µM",88.6%
same,"viability, T/C","second compound 1 µM, first compound 3.16 µM",121%
same,"viability, T/C","second compound 1 µM, first compound 10 µM",98.6%
same,"viability, T/C",[9],79.6%
same,"viability, T/C",[10],90.4%
same,"viability, T/C","second compound 3.16 µM, first compound 0.316 µM",103%
same,"viability, T/C","second compound 3.16 µM, first compound 1 µM",95.8%
same,"viability, T/C","second compound 3.16 µM, first compound 3.16 µM",81.5%
same,"viability, T/C","second compound 3.16 µM, first compound 10 µM",98.2%
same,"viability, T/C",[11],95.8%
same,"viability, T/C",[12],76.9%
same,"viability, T/C","second compound 10 µM, first compound 0.316 µM",73.6%
same,"viability, T/C","second compound 10 µM, first compound 1 µM",88.5%
same,"viability, T/C","second compound 10 µM, first compound 3.16 µM",93.8%
same,"viability, T/C","second compound 10 µM, first compound 10 µM",82.5%
Cn1ncnc1[C@H]1c2n[nH]c(=O)c3cc(F)cc(c23)N[C@@H]1c1ccc(F)cc1 + Cc1nc(NC(=O)N2CCCC2C(N)=O)sc1-c1ccnc(C(C)(C)C(F)(F)F)c1,pIC50,second compound 0.0316 µM,< 7.00
same,pIC50,second compound 0.1 µM,< 7.00
same,pIC50,second compound 0.316 µM,< 7.00
same,pIC50,second compound 1 µM,< 7.00
same,pIC50,second compound 3.16 µM,< 7.00
same,pIC50,second compound 10 µM,< 7.00
same,"viability, T/C","second compound 0.0316 µM, first compound 0.000316 µM",103%
same,"viability, T/C","second compound 0.0316 µM, first compound 0.001 µM",83.4%
same,"viability, T/C","second compound 0.0316 µM, first compound 0.00316 µM",130%
same,"viability, T/C","second compound 0.0316 µM, first compound 0.01 µM",100%
same,"viability, T/C",[1],91.6%
same,"viability, T/C",[2],130%
same,"viability, T/C","second compound 0.1 µM, first compound 0.000316 µM",106%
same,"viability, T/C","second compound 0.1 µM, first compound 0.001 µM",109%
same,"viability, T/C","second compound 0.1 µM, first compound 0.00316 µM",129%
same,"viability, T/C","second compound 0.1 µM, first compound 0.01 µM",91.2%
same,"viability, T/C",[3],117%
same,"viability, T/C",[4],131%
same,"viability, T/C","second compound 0.316 µM, first compound 0.000316 µM",110%
same,"viability, T/C","second compound 0.316 µM, first compound 0.001 µM",119%
same,"viability, T/C","second compound 0.316 µM, first compound 0.00316 µM",89.4%
same,"viability, T/C","second compound 0.316 µM, first compound 0.01 µM",82.2%
same,"viability, T/C",[5],117%
same,"viability, T/C",[6],117%
same,"viability, T/C","second compound 1 µM, first compound 0.000316 µM",108%
same,"viability, T/C","second compound 1 µM, first compound 0.001 µM",104%
same,"viability, T/C","second compound 1 µM, first compound 0.00316 µM",103%
same,"viability, T/C","second compound 1 µM, first compound 0.01 µM",119%
same,"viability, T/C",[7],134%
same,"viability, T/C",[8],89.3%
same,"viability, T/C","second compound 3.16 µM, first compound 0.000316 µM",94%
same,"viability, T/C","second compound 3.16 µM, first compound 0.001 µM",97.1%
same,"viability, T/C","second compound 3.16 µM, first compound 0.00316 µM",86.5%
same,"viability, T/C","second compound 3.16 µM, first compound 0.01 µM",90.2%
same,"viability, T/C",[9],90.4%
same,"viability, T/C",[10],92%
same,"viability, T/C","second compound 10 µM, first compound 0.000316 µM",99.3%
same,"viability, T/C","second compound 10 µM, first compound 0.001 µM",85.5%
same,"viability, T/C","second compound 10 µM, first compound 0.00316 µM",88.6%
same,"viability, T/C","second compound 10 µM, first compound 0.01 µM",77.8%
same,"viability, T/C",[11],91.5%
same,"viability, T/C",[12],89.8%
